What was measured:
[1] = molecular target: HCV genotype 1b replicon; test: HCV genotype 1b replicon assay (Renilla luciferase readout); type: cell-based, hepatitis C virus; conditions: for Genotype 1b: HCV genotype 1b replicon; for EC50: Hepatitis C virus, read-out: Genotype 1b
Procedure, shortened: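 Reported as pEC50 derived from a 4-parameter fit of Renilla luciferase activity against concentration. Replicon cells (APC144, Huh7 background) were exposed to compound for 48 h in G418-free medium with final 0.5% DMSO, after seeding at 10,000 cells/well and 4 h adherence.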

[2] = test system: HCV genotype 1a replicon; test: HCV genotype 1a replicon assay (NS3 protease activity readout); type: cell-based, hepatitis C virus; conditions: for Genotype 1a: HCV genotype 1a replicon; for EC50: Hepatitis C virus, read-out: Genotype 1a, HCV genotype 1a replicon
Procedure, shortened: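 EC50 values came from a 4-parameter robust fit of fluorescence (ex 340, em 509 nm) produced by NS3-specific protease in lysates, assayed with 15 μM FRET substrate for 20 min at 37° C, after 48 or 72 hours of compound exposure (0.5% DMSO) of Huh7.5-derived APC89 genotype 1a replicon cells.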

SMILES	Genotype 1b [1]	Genotype 1a [2]	EC50 [1] [nM]	EC50 [2] [nM]
CNC(=O)N1C[C@@H](C)N(c2ccc(C(=O)Nc3cc(C(F)(F)F)c(-c4ccc(-c5c[nH]c([C@@H]6C[C@H](C)CN6C(=O)[C@@H](NC(=O)OC)C(C)C)n5)cc4)cc3F)cn2)C[C@@H]1C [Example 1-8]	D (D represents pEC50>10 (EC50<0.1 nM))	D (D represents pEC50>10 (EC50<0.1 nM))	–	–
COC(=O)N[C@H](C(=O)N1[C@@H]2C[C@@H]2C[C@H]1c1nc(-c2ccc(-c3cc(Cl)c(NC(=O)c4ccc(N5CCN(C(=O)C(C)(C)C)C[C@H]5C)nc4)cc3OC(F)(F)F)cc2)c[nH]1)C(C)C [Example 8-2]	–	–	< 0.1	< 0.1
COC(=O)N[C@H](C(=O)N1C[C@@H](C)C[C@H]1c1nc(-c2ccc(-c3cc(Cl)c(NC(=O)c4ccc(N5CCN(C(=O)C(C)(C)C)C[C@H]5C)nc4)cc3C(F)(F)F)cc2)c[nH]1)C1CCOCC1 [Example 19-2]	D (D represents pEC50>10 (EC50<0.1 nM))	D (D represents pEC50>10 (EC50<0.1 nM))	–	–
COC(=O)N[C@H](C(=O)N1C[C@@H](OC)C[C@H]1c1nc(-c2ccc(-c3cc(Cl)c(NC(=O)c4ccc(N5C[C@H](C)N(C(=O)C(C)(C)C)C[C@H]5C)nc4)cc3OC(F)(F)F)cc2)c[nH]1)C1CCOCC1 [Example 28-7]	D (D represents pEC50>10 (EC50<0.1 nM))	D (D represents pEC50>10 (EC50<0.1 nM))	–	–
COC(=O)N[C@H](C(=O)N1C[C@@H](C)C[C@H]1c1nc(-c2ccc(-c3cc(Cl)c(NC(=O)c4ccc(N5CCN(C(=O)c6ncc[nH]6)C[C@H]5C)nc4)cc3OC(F)(F)F)cc2)c[nH]1)C(C)C [Example 1-35]	D (D represents pEC50>10 (EC50<0.1 nM))	D (D represents pEC50>10 (EC50<0.1 nM))	–	–
COC(=O)N[C@H](C(=O)N1C[C@@H](C)C[C@H]1c1nc(-c2ccc(-c3cc(Cl)c(C(=O)Nc4ccc(N5CCN(C(=O)C(C)(C)C)C[C@H]5C)nc4)cc3OC(F)(F)F)cc2)c(Cl)[nH]1)C1CCOCC1 [Example 22-7]	–	–	< 0.1	< 0.1
COC(=O)N[C@H](C(=O)N1[C@@H](C)CC[C@H]1c1nc(-c2ccc(-c3cc(Cl)c(C(=O)Nc4ccc(N5CCN(C(=O)C(C)(C)C)C[C@H]5C)nc4)cc3OC(F)(F)F)cc2)c[nH]1)C1CCOCC1 [Example 18-5]	D (D represents pEC50>10 (EC50<0.1 nM))	D (D represents pEC50>10 (EC50<0.1 nM))	–	–
COC(=O)N[C@H](C(=O)N1C[C@@H](C)C[C@H]1c1nc(-c2ccc(-c3cc(F)c(NC(=O)c4ccc(N5C[C@H](C)N(C(=O)C6CC6)C[C@H]5C)nc4)cc3OC(F)(F)F)cc2)c[nH]1)C(C)C [Example 1-15]	D (D represents pEC50>10 (EC50<0.1 nM))	D (D represents pEC50>10 (EC50<0.1 nM))	–	–
COC(=O)N[C@H](C(=O)N1C[C@@H](C)C[C@H]1c1nc(-c2ccc(-c3cc(Cl)c(NC(=O)c4ccc(N5CCN(C(=O)NN6CCOC6=O)C[C@H]5C)nc4)cc3OC(F)(F)F)cc2)c[nH]1)C(C)C [Example 12-17]	–	–	< 0.1	< 0.1
COC(=O)N[C@H](C(=O)N1[C@@H](C)CC[C@H]1c1nc(-c2ccc(-c3cc(Cl)c(NC(=O)c4ccc(N5CCN(C(=O)C(C)(C)C)C[C@H]5C)nc4)cc3C(F)(F)F)cc2)c[nH]1)C(C)C [Example 17-2]	D (D represents pEC50>10 (EC50<0.1 nM))	D (D represents pEC50>10 (EC50<0.1 nM))	–	–
COC(=O)NC(C(=O)N1C[C@@H](C)C[C@H]1c1nc(-c2ccc(-c3c(F)cc(NC(=O)c4ccc(N5CCN(C(=O)C(C)(C)C)C[C@H]5C)nc4)cc3F)cc2)c[nH]1)C1CCOCC1 (stereo partly shown) [Example 21-3]	–	–	< 0.1	< 0.1
COC(=O)N[C@H](C(=O)N1C[C@@H](C)C[C@H]1c1nc(-c2ccc(-c3cc(F)c(NC(=O)c4ccc(N5CCN(C(=O)C(C)(C)C)C[C@H]5C)nc4)cc3Cl)cc2)c[nH]1)C(C)C [Example 5-6]	–	–	< 0.1	0.1 to 1
COCC1(C(=O)N2CCN(c3ccc(C(=O)Nc4cc(OC(F)(F)F)c(-c5ccc(-c6c[nH]c([C@@H]7C[C@H](OC)CN7C(=O)[C@@H](NC(=O)OC)C7CCOCC7)n6)cc5)cc4Cl)cn3)[C@H](C)C2)CCC1 [Example 28-22]	D (D represents pEC50>10 (EC50<0.1 nM))	D (D represents pEC50>10 (EC50<0.1 nM))	–	–
COC(=O)NC(C(=O)N1CC(OC)CC1c1nc(-c2ccc(-c3cc(F)c(NC(=O)c4ccc(N5CCN(C(=O)C(C)(C)C)CC5C)nc4)cc3OC(F)(F)F)cc2)c[nH]1)C(C)OC (stereo not shown) [Example 16-5]	D (D represents pEC50>10 (EC50<0.1 nM))	D (D represents pEC50>10 (EC50<0.1 nM))	–	–
COC(=O)N[C@H](C(=O)N1C[C@@H](C)C[C@H]1c1nc(-c2ccc(-c3cc(F)c(NC(=O)c4ccc(N5CCN(C(=O)C(C)(C)C)C[C@H]5C)nc4)cc3OC(F)(F)F)cc2)c[nH]1)[C@H](C)O [Example 13-20]	–	–	< 0.1	< 0.1
COC(=O)N[C@H](C(=O)N1C[C@@H](N(C)C)C[C@H]1c1nc(-c2ccc(-c3ccc(NC(=O)c4ccc(N5CCN(C(=O)[C@]6(C)CCCN6C(C)=O)C[C@H]5C)nc4)cc3)cc2)c[nH]1)C(C)C [Example 2-2]	C (C represents pEC50 between and 9 and about 10, (EC50 between 1 nM and 0.1 nM))	C (C represents pEC50 between and 9 and about 10, (EC50 between 1 nM and 0.1 nM))	–	–
COC(=O)N[C@H](C(=O)N1C[C@@H](OC)C[C@H]1c1nc(-c2ccc(-c3cc(Cl)c(NC(=O)c4ccc(N5CCN(C(=O)C(C)(C)C)C[C@H]5C)nc4)cc3OC(F)(F)F)cc2)c[nH]1)C(C)(C)O [Example 16-1]	D (D represents pEC50>10 (EC50<0.1 nM))	D (D represents pEC50>10 (EC50<0.1 nM))	–	–
COC(=O)N[C@H](C(=O)N1C[C@@H](C)C[C@H]1c1nc(-c2ccc(-c3cc(F)c(NC(=O)c4ccc(N5CCN(C(=O)[C@H]6CC6(C)C)C[C@H]5C)nc4)cc3OC(F)(F)F)cc2)c[nH]1)C(C)C [Example 1-10]	D (D represents pEC50>10 (EC50<0.1 nM))	D (D represents pEC50>10 (EC50<0.1 nM))	–	–
COC(=O)N[C@H](C(=O)N1C[C@@H](C)C[C@H]1c1nc(-c2ccc(-c3cc(F)c(NC(=O)c4ccc(N5CCN(C(=O)C(C)(C)C)C[C@H]5C)nc4)cc3OC(F)(F)F)cc2)c[nH]1)C(C)(C)O [Example 13-24]	–	–	< 0.1	< 0.1
COC(=O)N[C@H](C(=O)N1C[C@@H](C)C[C@H]1c1nc(-c2ccc(-c3cc(Cl)c(NC(=O)c4ccc(N5CCN(C(=O)C(C)(C)C)C[C@H]5C)nc4)cc3C(F)(F)F)cc2)c[nH]1)C(C)C [Example 1-61]	D (D represents pEC50>10 (EC50<0.1 nM))	D (D represents pEC50>10 (EC50<0.1 nM))	–	–
CNC(=O)N1CCN(c2ccc(C(=O)Nc3cc(C(F)(F)F)c(-c4ccc(-c5c[nH]c([C@@H]6C[C@H](C)CN6C(=O)[C@@H](NC(=O)OC)C(C)C)n5)cc4)cc3Cl)cn2)[C@H](C)C1 [Example 1-30]	D (D represents pEC50>10 (EC50<0.1 nM))	D (D represents pEC50>10 (EC50<0.1 nM))	–	–
COC(=O)N[C@H](C(=O)N1C[C@@H](O)C[C@H]1c1nc(-c2ccc(-c3ccc(NC(=O)c4ccc(N5CCN(C(=O)[C@H]6CC6(C)C)C[C@H]5C)nc4)cc3)cc2)c[nH]1)C(C)C [Example 26-4]	D (D represents pEC50>10 (EC50<0.1 nM))	C (C represents pEC50 between and 9 and about 10, (EC50 between 1 nM and 0.1 nM))	–	–
COC(=O)N[C@H](C(=O)N1C[C@@H](C)C[C@H]1c1nc(-c2ccc(-c3cc(Cl)c(NC(=O)c4ccc(N5CCN(C(=O)C6CC(O)C6)C[C@H]5C)nc4)cc3OC(F)(F)F)cc2)c[nH]1)C(C)C (stereo partly shown) [Example 12-47]	–	–	< 0.1	< 0.1
COC(=O)N[C@H](C(=O)N1C[C@@H](C)C[C@H]1c1nc(-c2ccc(-c3ccc(C(=O)Nc4ccc(N5CCN(C(=O)C(C)(C)C)C[C@H]5C)nc4)cc3)cc2)c[nH]1)C1CCOCC1 [Example 22-1]	D (D represents pEC50>10 (EC50<0.1 nM))	D (D represents pEC50>10 (EC50<0.1 nM))	–	–
COC(=O)N[C@H](C(=O)N1C[C@@H](OC)C[C@H]1c1nc(-c2ccc(-c3cc(Cl)c(NC(=O)c4ccc(N5CCN(C(=O)[C@H]6CC6(C)C)C[C@H]5C)nc4)cc3OC(F)(F)F)cc2)c[nH]1)C1CCOCC1 [Example 28-11]	D (D represents pEC50>10 (EC50<0.1 nM))	D (D represents pEC50>10 (EC50<0.1 nM))	–	–
CCC(=O)N1CCC[C@@H]1C(=O)N1C[C@@H](C)N(c2ccc(NC(=O)c3ccc(-c4ccc(-c5c[nH]c([C@@H]6C[C@H](C)CN6C(=O)[C@@H](NC(=O)OC)C(C)C)n5)cc4)c(OC(F)(F)F)c3)cn2)C[C@@H]1C [Example 4-21]	D (D represents pEC50>10 (EC50<0.1 nM))	D (D represents pEC50>10 (EC50<0.1 nM))	–	–
COC(=O)N[C@H](C(=O)N1C[C@@H](C#N)C[C@H]1c1nc(-c2ccc(-c3cc(Cl)c(NC(=O)c4ccc(N5CCN(C(=O)C(C)(C)C)C[C@H]5C)nc4)cc3OC(F)(F)F)cc2)c[nH]1)C(C)C [Example 15-11]	–	–	< 0.1	< 0.1
COC(=O)N[C@H](C(=O)N1C[C@@H](C)C[C@H]1c1nc(-c2ccc(-c3cc(Cl)c(C(=O)Nc4ccc(N5CCN(C(=O)C(C)(C)C)[C@H](C)C5)nc4)cc3OC(F)(F)F)cc2)c[nH]1)C1CCOCC1 [24-3]	D (D represents pEC50>10 (EC50<0.1 nM))	C (C represents pEC50 between and 9 and about 10, (EC50 between 1 nM and 0.1 nM))	–	–
COC(=O)N[C@H](C(=O)N1C[C@@H](C)C[C@H]1c1nc(-c2ccc(-c3ccc(C(=O)Nc4ccc(N5CCN(C(=O)[C@]6(C)CCCN6C(=O)[C@H](NC(=O)OC)C(C)C)C[C@H]5C)nc4)cc3OC(F)(F)F)cc2)c[nH]1)C(C)C [Example 4-7]	D (D represents pEC50>10 (EC50<0.1 nM))	D (D represents pEC50>10 (EC50<0.1 nM))	–	–
